Columns and labels:
U266 cells = test: Cell viability of U266 cells, trypan blue exclusion; assay type: cell-based, human; conditions: at the concentrations tested
Description: Cell viability was evaluated using a trypan blue exclusion as previously described. Briefly, a 10 μl of cells suspension from each culture was mixed with equal volume of trypan blue dye. The mixture was loaded into a hemocytometer and cells were counted under a microscope. The percentage of viable cells was calculated as follows: Viable cells (%)=(total number of viable cells)/(total number of cells)×100.

STAT3 = test: RT-PCR gene expression in stimulated PBMCs: STAT3; assay type: cell-based, human; conditions: 10 μg/mL
Description: (§1) Quantitative real time PCR was used to detect the epsilon germline transcription. Human PBMC cells (1.5×10^6 cells/mL) were co-incubated with DMF-C1 compound (10 μg/mL) at 37° C. under 5% CO2 for 4 days. Cells were then harvested and total RNA was isolated using Trizol reagent (Gibco BRL, Rockville, Md.) following the manufacturer's instructions. The RNA concentrations were then quantified by triplicate optical density (OD) readings (Bio-Rad SmartSpect 3000; Bio-Rad, Hercules, Calif.). The reverse transcription was performed to get the cDNA using ImProm-II™ Reverse Transcriptase (Promega Corporation, Madison, Wis.) as described by the manufacturer's instructions. The RT-PCR amplification was performed using Maxima™ SYBR Green qPCR Master Mix (2×) kit (Fisher Scientific, Pittsburgh, Pa.) with epsilon germline primers or GAPDH primers. The primer sequences were listed as εGLT forward: 5′-[…]-3′; εGLT reverse: 5′-[…]-3′; GAPDH-forward: 5′-[…]-3′; GAPDH-reverse: 5′-[…]-3′; STAT3-forward: 5′-[…]-3′; STAT3-reverse: 5′-[…]-3′; T-bet-forward: 5′-[…]-3′; T-bet-reverse: 5′-[…]-3′; IFN-γ-forward: 5′-[…]-3′; IFN-γ-reverse: 5′-[…]-3′; IL-10-forward: 5′-[…]-3′; IL-10-reverse: 5′-[…]-3′. IL-5-forward. 5′-[…] TGCA-3′; IL-5-reverse: 5′-[…]-3′. All primers were synthesized by Sigma-Aldrich Corporation (St. Louis, Mo.).

IL-10 = test: RT-PCR gene expression in stimulated PBMCs: IL-10; assay type: cell-based, human; conditions: 10 μg/mL
Description: as §1

CACO-2 cells = test: Berberine uptake by Caco-2 cells, LC-MS; assay type: in vitro ADME; conditions: 50 μg/mL berberine, 1 hour
Description: Experiments were performed on 24 well plates for berberine uptake assay. CACO-2 cells were seeded in each well at the concentration of 1×10^5 cells/well. Cells were then allowed to grow to confluence and differentiation for 2 weeks in culture medium (DMEM+10% FBS, high glucose and sodium pyruvate and supplemented with 1% Essential Amino Acids). On the experiment day, cells were washed three times with pre-warmed HBSS and incubated with 1 ml warm HBSS for 30 minutes.
After conditioning with HBSS, cells were incubated at 37° C. with 50 μg/mL berberine with or without 250 μg/mL of nine different herbal medicines, fruits of Prunus mume (P. mume), skin of the fruits of Zanthoxylum schinifolium (Z. schinifolium), roots of Angelica sinensis (A. sinensis), rhizome of Zingiber officinalis (Z. officinalis), twigs of Cinnamomum cassia (C. cassia), bark of Phellodendron chinensis (P. chinensis), rhizome of Coptis chinensis (C. chinensis), roots of Panax ginseng (P. ginseng) and fruiting body of Ganoderma lucidum (G. lucidum). Control wells received 0, 50, 100 and 200 μg of berberine alone.
After 1 hour, cells were washed 3 times with ice-cold HBSS and scraped in 500 μl of ice cold HBSS and centrifuged. […] 75 μL of each sample was analyzed for its berberine concentration by using LC-MS. […]
All samples were analyzed using waters LC-MS system (Waters corp. MA) for berberine detection. […]

[1] = In vivo pharmacokinetics study of berberine bioavailability, serum LC-MS; conditions: C3H/HeJ, mouse, oral berberine 2 mg, with or without Angelica sinensis 10 mg, 1 hr after administration, read-out: Concentration of berberine in serum from mice
Description: C3H/Hej mice were purchased from Jackson laboratory (Bar Harbor, Me.) and maintained in the animal facility at Mount Sinai School of Medicine^(39). Standard guidelines for the care and use of animals were followed (Institute of Laboratory Animal Resources Commission of Life Sciences, 1996). In order to study the bioavailability, C3H/Hej mice were randomly separated into two groups. Mice were fasted for 12 h before the oral administration of berberine (2 mg) or berberine (2 mg)+Angelica sinensis (10 mg). Blood samples (100 μl) were collected from the facial vein at 1 hr after the administration. The serum of each blood sample was prepared and stored at −80° C. for further analysis. For in vivo study of berberine bioavailability, 50 μL of each serum sample was mixed with 400 μL of acetonitrile and vortexed thoroughly. The mixture was then centrifuged at 1000 rpm for 15 mins. The supernatant was dried under vacuum and resuspended into 50 μL of acetonitrile. All samples were analyzed using waters LC-MS system (Waters corp. MA) for berberine detection. Molecular weight was identified by LC-MS/TOF analysis in elctrospray (ESI) positive mode. The LCT premier TOF mass spectrometer (Waters Corporation, Milford, Mass.) was coupled to Waters Alliance 2695 HPLC system. […]. The mass range was from m/z 50 to 1000 in W optics mode. […]

SMILES: COc1ccc2cc3[n+](cc2c1OC)CCc1cc2c(cc1-3)OCO2 [berberine]
- cell viability of U266 cells (U266 cells): no toxicity
- mRNA expression of STAT-3 (STAT3): significantly increased
- mRNA level of IL-10 (IL-10): trend of increase
- Concentration of berberine in Cacao-2 cells, berberine standard alone (CACO-2 cells): 2950 ng/mL
- concentration at 1 h [1]: 280 ng/mL
